28 molecules from paper PMC12155096 (International Journal of Molecular Sciences, 2025) can be followed below.

Among the targets are human CYP2C9 (Homo sapiens, UniProt P11712); human CYP2C19 (Homo sapiens, UniProt P33261); human CYP2D6 (Homo sapiens, UniProt P10635); CYP3A4 (Homo sapiens, UniProt P08684).
Another data set addresses T1, human CYP1A2 (Homo sapiens, UniProt P05177).
T1 sequence (P05177 1-516): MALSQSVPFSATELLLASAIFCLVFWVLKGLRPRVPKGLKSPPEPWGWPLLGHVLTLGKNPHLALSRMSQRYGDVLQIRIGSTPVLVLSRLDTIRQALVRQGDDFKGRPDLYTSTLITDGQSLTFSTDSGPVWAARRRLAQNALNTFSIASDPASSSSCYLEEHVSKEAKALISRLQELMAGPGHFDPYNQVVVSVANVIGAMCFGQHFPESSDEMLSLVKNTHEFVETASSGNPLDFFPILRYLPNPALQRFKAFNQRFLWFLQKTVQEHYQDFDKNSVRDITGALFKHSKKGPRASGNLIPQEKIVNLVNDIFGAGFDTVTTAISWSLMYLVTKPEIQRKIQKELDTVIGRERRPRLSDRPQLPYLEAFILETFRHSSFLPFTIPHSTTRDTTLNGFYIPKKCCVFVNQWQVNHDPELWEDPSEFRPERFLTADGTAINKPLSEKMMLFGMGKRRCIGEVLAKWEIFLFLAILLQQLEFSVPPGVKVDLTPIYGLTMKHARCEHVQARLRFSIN

Molecules are shown by their SMILES.

Sequence of CYP3A4 (P08684 whole entry): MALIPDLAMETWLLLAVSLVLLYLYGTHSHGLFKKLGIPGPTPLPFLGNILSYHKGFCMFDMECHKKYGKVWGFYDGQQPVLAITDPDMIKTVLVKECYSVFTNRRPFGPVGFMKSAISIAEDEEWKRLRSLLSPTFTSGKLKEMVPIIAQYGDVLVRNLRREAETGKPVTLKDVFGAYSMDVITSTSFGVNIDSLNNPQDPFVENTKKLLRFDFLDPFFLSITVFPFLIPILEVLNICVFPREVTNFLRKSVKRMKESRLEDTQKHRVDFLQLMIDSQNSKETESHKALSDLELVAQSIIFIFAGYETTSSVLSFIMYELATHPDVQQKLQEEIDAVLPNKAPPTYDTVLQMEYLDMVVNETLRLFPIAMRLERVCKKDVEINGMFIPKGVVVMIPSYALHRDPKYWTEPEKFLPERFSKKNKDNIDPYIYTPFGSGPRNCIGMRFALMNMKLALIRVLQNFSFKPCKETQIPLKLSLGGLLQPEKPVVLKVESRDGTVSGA
Sequence of human CYP2C19 (P33261 whole entry): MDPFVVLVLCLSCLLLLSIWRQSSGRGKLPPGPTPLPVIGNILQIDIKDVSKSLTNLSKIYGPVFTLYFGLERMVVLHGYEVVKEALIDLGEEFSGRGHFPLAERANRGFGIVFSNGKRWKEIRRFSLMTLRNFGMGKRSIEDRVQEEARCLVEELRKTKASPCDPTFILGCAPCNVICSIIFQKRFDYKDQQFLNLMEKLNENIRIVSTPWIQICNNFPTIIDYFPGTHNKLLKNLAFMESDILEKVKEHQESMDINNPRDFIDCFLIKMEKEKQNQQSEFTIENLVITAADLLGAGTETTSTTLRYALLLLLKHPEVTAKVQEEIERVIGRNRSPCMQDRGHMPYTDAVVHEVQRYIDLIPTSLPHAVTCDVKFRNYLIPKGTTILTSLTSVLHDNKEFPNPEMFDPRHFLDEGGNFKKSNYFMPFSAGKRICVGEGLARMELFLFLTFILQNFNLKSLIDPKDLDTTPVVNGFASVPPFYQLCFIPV
Sequence of human CYP2C9 (P11712 whole entry): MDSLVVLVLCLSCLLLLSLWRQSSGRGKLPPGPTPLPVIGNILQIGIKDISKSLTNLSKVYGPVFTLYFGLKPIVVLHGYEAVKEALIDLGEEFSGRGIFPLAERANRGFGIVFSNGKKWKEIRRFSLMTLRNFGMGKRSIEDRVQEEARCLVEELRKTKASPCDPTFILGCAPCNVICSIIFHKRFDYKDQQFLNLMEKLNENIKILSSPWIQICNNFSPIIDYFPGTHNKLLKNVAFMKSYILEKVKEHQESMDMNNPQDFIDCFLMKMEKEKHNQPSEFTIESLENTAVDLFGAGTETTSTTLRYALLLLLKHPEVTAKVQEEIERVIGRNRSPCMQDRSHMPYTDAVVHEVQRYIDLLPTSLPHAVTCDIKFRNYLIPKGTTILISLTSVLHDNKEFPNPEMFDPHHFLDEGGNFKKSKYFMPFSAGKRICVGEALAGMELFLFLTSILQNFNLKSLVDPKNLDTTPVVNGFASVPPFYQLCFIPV
Sequence of human CYP2D6 (P10635 whole entry): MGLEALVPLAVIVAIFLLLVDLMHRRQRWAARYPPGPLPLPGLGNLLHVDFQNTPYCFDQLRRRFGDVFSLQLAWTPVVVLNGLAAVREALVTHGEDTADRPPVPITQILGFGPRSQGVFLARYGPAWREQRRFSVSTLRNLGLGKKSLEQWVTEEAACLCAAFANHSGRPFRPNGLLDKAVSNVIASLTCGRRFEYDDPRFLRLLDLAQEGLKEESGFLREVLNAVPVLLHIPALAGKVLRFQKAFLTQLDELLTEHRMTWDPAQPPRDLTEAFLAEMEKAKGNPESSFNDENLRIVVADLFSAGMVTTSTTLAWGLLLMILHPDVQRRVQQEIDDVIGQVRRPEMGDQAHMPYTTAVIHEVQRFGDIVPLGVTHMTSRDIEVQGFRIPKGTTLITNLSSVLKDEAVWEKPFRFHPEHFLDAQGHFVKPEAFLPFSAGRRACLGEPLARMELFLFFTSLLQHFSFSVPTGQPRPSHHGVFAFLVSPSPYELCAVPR

Consider `C=C(C)C(=O)OCCCCCCOC(=O)C(=C)C` [1,6-Hexanediol dimethacrylate], for which the AC50 amounted to 37 µM at human CYP1A2, 37.4 µM on human CYP2C9, 51.5 µM at human CYP2C19 and 16.9 µM at CYP3A4. For the same molecule, the “CYP2D6 AC50 (half-maximal activity concentration)” value (“CYP2D6 AC50” below) at human CYP2D6 is reported as “Inactive”.

Take `C=C(C)C(=O)OCCCCCCCCCCOC(=O)C(=C)C` [1,10-Decanediol dimethacrylate]: the AC50 stood at 40.1 µM on human CYP1A2, 37 µM at human CYP2D6 and 46.2 µM at CYP3A4. Also, the “CYP2C9 AC50 (half-maximal activity concentration)” value (“CYP2C9 AC50” below) on human CYP2C9 is “Inconclusive inhibitor”. The “CYP2C19 AC50 (half-maximal activity concentration)” value (from here on “CYP2C19 AC50”) at human CYP2C19 is recorded as “Inconclusive inhibitor”.

For the molecule `BrCc1cccc(Oc2ccccc2)c1` [1-(Bromomethyl)-3-phenoxybenzene], the concentration at half-maximal activity (AC50) was 41.5 µM on human CYP1A2; 82.9 µM on human CYP2C9; 19.9 µM at human CYP2C19; 50.3 µM at human CYP2D6; 80 µM at CYP3A4.

`CCCCCCCCS(=O)(=O)Cl` [1-Octanesulfonyl chloride]: the “CYP1A2 AC50 (half-maximal activity concentration)” value (“CYP1A2 AC50” below) at human CYP1A2 is “Inactive”. Besides, the AC50 worked out at 28.7 µM at human CYP2C9 and 22.9 µM on CYP3A4. Also, the “CYP2C19 AC50” value at human CYP2C19 is “Inconclusive inhibitor”. At human CYP2D6, the “CYP2D6 AC50” value is given as “Inconclusive inhibitor”.

For `O=C1NC(=O)c2cccc3cccc1c23` [1H-Benzo[de]isoquinoline-1,3(2H)-dione], the concentration at half-maximal activity (AC50) on human CYP1A2 was 2.74 µM; on human CYP2C9, 33.1 µM. Also, at human CYP2C19, the “CYP2C19 AC50” value is “Inconclusive inhibitor”. Further, the “CYP2D6 AC50” value at human CYP2D6 is listed as “Inactive”. Further, the “CYP3A4 AC50 (half-maximal activity concentration)” value (“CYP3A4 AC50” for short) at CYP3A4 is reported as “Inconclusive activator”.

With `COC(OC)(C(=O)c1ccccc1)c1ccccc1` [2,2-Dimethoxy-1,2-diphenylethanone], the “CYP1A2 AC50” value on human CYP1A2 is given as “Inactive”. In addition, the AC50 stood at 22.5 µM on human CYP2C9, 15.9 µM at human CYP2C19, 34.6 µM at human CYP2D6 and 10.2 µM at CYP3A4.

`O=C(c1ccc(O)c(O)c1)c1ccc(O)cc1O` [2,3',4,4'-Tetrahydroxybenzophenone]: the AC50 at human CYP1A2 was found to be 34.3 µM; on human CYP2C9, 4.22 µM; on human CYP2C19 it was 33.2 µM; on human CYP2D6, 7.5 µM; at CYP3A4, 18.4 µM.

As for `O=C(O)c1cc2ccccc2nc1C(=O)O` [2,3-Quinolinedicarboxylic acid], the AC50 on human CYP1A2 worked out at 47.9 µM; on CYP3A4 it was 25.2 µM. In addition, the “CYP2C9 AC50” value at human CYP2C9 is “Inactive”. On human CYP2C19, the “CYP2C19 AC50” value is reported as “Inactive”. Moreover, the “CYP2D6 AC50” value on human CYP2D6 is listed as “Inactive”.

For the molecule `O=C(c1ccc(O)cc1)c1ccc(O)cc1O` [2,4,4'-Trihydroxybenzophenone], the AC50 stood at 34.3 µM on human CYP1A2, 3.18 µM on human CYP2C9, 33 µM at human CYP2D6 and 19.4 µM at CYP3A4. The “CYP2C19 AC50” value at human CYP2C19 is on record as “Inactive”.

On to `O=S(=O)(O)c1cc(Cl)c(Cl)cc1Cl` [2,4,5-Trichlorobenzenesulfonic acid], for which the “CYP1A2 AC50” value at human CYP1A2 is “Inconclusive inhibitor”. For the same molecule, the AC50 was determined as 33 µM at human CYP2C9 and 48.3 µM at CYP3A4. Further, on human CYP2C19, the “CYP2C19 AC50” value is reported as “Inconclusive inhibitor”. At human CYP2D6, the “CYP2D6 AC50” value was “Inconclusive”.

On to `CCOC(=O)COc1ccc(Cl)cc1Cl` [2,4-D-ethyl ester], for which the AC50 was 30.8 µM on human CYP1A2, 55.5 µM at human CYP2C9, 26.8 µM at human CYP2C19 and 17.1 µM on CYP3A4. Also, the “CYP2D6 AC50” value at human CYP2D6 is on record as “Inconclusive inhibitor”.

Turning to `O=C([O-])CCCOc1ccc(Cl)cc1Cl.[Na+]` [2,4-DB-sodium], the “CYP1A2 AC50” value at human CYP1A2 is “Inactive”. Further, the results for the AC50 at human CYP2C9 and at CYP3A4 were 60.6 µM and 46.2 µM, respectively. Further, the “CYP2C19 AC50” value on human CYP2C19 is on record as “Inconclusive inhibitor”. Further, the “CYP2D6 AC50” value at human CYP2D6 is recorded as “Inactive”.

Turning to `COc1ccc(C(=O)c2ccc(O)cc2)c(OC)c1` [2,4-Dimethoxy-4'-hydroxy benzophenone], the AC50 was 49.2 µM on human CYP1A2, 0.64 µM on human CYP2C9, 6.52 µM at human CYP2C19 and 31.7 µM at CYP3A4. For the same molecule, the “CYP2D6 AC50” value on human CYP2D6 is “Inconclusive inhibitor”.

`CCCC(C)c1ccccc1O` (centres unmarked) [2-(1-Methylbutyl)phenol]: the half-maximal activity concentration (AC50) came to 56.6 µM on human CYP1A2, 49 µM on human CYP2C9 and 10.9 µM at human CYP2C19. At human CYP2D6, the “CYP2D6 AC50” value was “Inactive”. For the same molecule, at CYP3A4, the “CYP3A4 AC50” value is listed as “Inactive”.

On to `c1ccc(CCCc2ccccn2)cc1` [2-(3-Phenylpropyl)pyridine], for which the AC50 at human CYP1A2 worked out at 31.2 µM; on human CYP2C9 it was 33.1 µM; on human CYP2C19 it was 7.19 µM; on human CYP2D6, 53.2 µM; on CYP3A4, 8.01 µM.

Turning to `Nc1ccccc1S(=O)(=O)c1ccccc1` [2-(Phenylsulfonyl)aniline], the AC50 amounted to 50.5 µM on human CYP1A2, 8.25 µM at human CYP2C9, 17.8 µM at human CYP2C19 and 71 µM at CYP3A4. Also, the “CYP2D6 AC50” value on human CYP2D6 was “Inactive”.

For `CC(C)c1ccc2sc3ccccc3c(=O)c2c1` [2-(Propan-2-yl)-9H-thioxanthen-9-one], the half-maximal activity concentration (AC50) at human CYP1A2 turned out to be 7.68 µM; on human CYP2C9, 15.6 µM; on human CYP2C19 it was 13.1 µM; at human CYP2D6, 27.5 µM; at CYP3A4, 7.71 µM.

For the molecule `NS(=O)(=O)c1ccccc1OC(F)(F)F` [2-(Trifluoromethoxy)benzenesulfonamide], the values for the AC50 at human CYP1A2 and on human CYP2C9 were 51.9 µM and 62.1 µM, respectively. The “CYP2C19 AC50” value at human CYP2C19 is “Inconclusive inhibitor”. At human CYP2D6, the “CYP2D6 AC50” value is on record as “Inactive”. The “CYP3A4 AC50” value on CYP3A4 was “Inactive”.

Take `CC(=O)c1cc2ccccc2s1` [2-Acetylbenzo[b]thiophene]: the AC50 came out at 6.92 µM on human CYP1A2 and 24.6 µM at CYP3A4. For the same molecule, the “CYP2C9 AC50” value on human CYP2C9 is given as “Inactive”. The “CYP2C19 AC50” value on human CYP2C19 was “Inactive”. Moreover, the “CYP2D6 AC50” value at human CYP2D6 is “Inactive”.

As to `Nc1ccc(Cl)cc1C(=O)c1ccccc1F` [2-Amino-5-chloro-2'-fluorobenzophenone], the AC50 at human CYP1A2 came to 14.4 µM; at human CYP2C9 it was 16.1 µM; on human CYP2C19, 11.9 µM; at CYP3A4, 8.75 µM. In addition, on human CYP2D6, the “CYP2D6 AC50” value was “Inactive”.

For `CC(C)NC(=O)c1ccccc1N` [2-Amino-N-(1-methylethyl)benzamide], the figures for the concentration at half-maximal activity (AC50) on human CYP1A2, on human CYP2C19 and at CYP3A4 were 51.1 µM, 3.36 µM and 35.7 µM, respectively. In addition, the “CYP2C9 AC50” value at human CYP2C9 is on record as “Inactive”. Besides, the “CYP2D6 AC50” value at human CYP2D6 was “Inactive”.

In the case of `NC(=O)Nc1nc2ccccc2[nH]1` [2-Benzimidazolylurea], the half-maximal activity concentration (AC50) at human CYP1A2 came to 47.2 µM; on human CYP2C9 it was 60.5 µM; at human CYP2C19, 47.2 µM; on human CYP2D6, 34.2 µM; at CYP3A4, 47.5 µM.

`Brc1nc2ccccc2s1` [2-Bromobenzothiazole]: the AC50 on human CYP1A2 worked out at 11.1 µM; on CYP3A4, 45.5 µM. In addition, on human CYP2C9, the “CYP2C9 AC50” value is “Inactive”. Moreover, the “CYP2C19 AC50” value at human CYP2C19 is recorded as “Inactive”. For the same molecule, on human CYP2D6, the “CYP2D6 AC50” value is recorded as “Inactive”.

For `CCCCN1C(=O)c2ccccc2C1=O` [2-Butyl-1H-isoindole-1,3(2H)-dione], the AC50 at human CYP1A2 was 2.03 µM; on human CYP2C9, 50.6 µM; on human CYP2C19, 26.6 µM; at CYP3A4, 25.6 µM. The “CYP2D6 AC50” value on human CYP2D6 was “Inactive”.

`Cc1cc(O)c(Cl)cc1C` [2-Chloro-4,5-dimethylphenol]: the AC50 on human CYP1A2 is 27.7 µM; at human CYP2C9, 34.3 µM; at human CYP2C19 it was 61.8 µM. The “CYP2D6 AC50” value on human CYP2D6 was “Inactive”. Moreover, the “CYP3A4 AC50” value at CYP3A4 was “Inactive”.

On to `CCCCCCCCC(CCCCCC)C(=O)O` (centres unmarked) [2-Hexyldecanoic acid], for which the “CYP1A2 AC50” value at human CYP1A2 is recorded as “Inactive”. Besides, the concentration at half-maximal activity (AC50) amounted to 26.2 µM on human CYP2C9, 34.3 µM at human CYP2C19 and 65.1 µM on CYP3A4. Further, the “CYP2D6 AC50” value at human CYP2D6 is listed as “Inactive”.

For the molecule `CCCCCC=CCC1CC(=O)OC1=O` (centres unmarked) [2-Octen-1-ylsuccinic anhydride], the AC50 at human CYP1A2 stood at 31.9 µM; at human CYP2C19, 55 µM; at CYP3A4, 31.9 µM. In addition, the “CYP2C9 AC50” value on human CYP2C9 is given as “Inactive”. Besides, the “CYP2D6 AC50” value on human CYP2D6 is “Inactive”.

`O=C(C=Cc1ccccc1)OCCc1ccccc1` [2-Phenylethyl 3-phenylprop-2-enoate]: the AC50 at human CYP1A2 stood at 6.35 µM; at human CYP2C9 it was 25.6 µM; on human CYP2C19 it was 20.8 µM; at CYP3A4, 15.7 µM. The “CYP2D6 AC50” value at human CYP2D6 is on record as “Inactive”.

In general, AC50 refers to the concentration giving half of the maximal activity seen. Low values mean activity at low concentration, high ones activity only at high concentration.
